Experimental data taken from patent US20160367553A1, “Methods and Compositions for Treating Cancers having Acquired Resitance to prior Chemotherapeutic and Targeted Drugs Using Carboxyamidotriazole Orotate” (priority 2015, published 2016).

Tests used:
[1] = test system: refractory head and neck tumor; test: Phase I clinical study of CTO, patient with refractory head and neck tumor; format: in vivo, human; conditions: tumor PBKCA, E545K, 285 mg/m2/day
Procedure: The effectiveness of the CTO treatment is determined by controlled clinical studies. The cancers are evaluated by measuring tumors no more than 14 days before the start of the treatment, and evaluated after 2 cycles of 28 days after day 1 of the administration of the first dose of CTO. The tumor size is measured by the most accurate measurement such as PET-CT, CI scan, MRI scan, x-ray, ultrasound, etc. The criteria for evaluating response are described in the revised Response Evaluation Criteria in Solid Tumors Guidelines, Eisenhauer et al, 1990 and by the Macdonald Criteria for response to high grade gliomas, Macdonald. et al, 1990.
“Progressive disease” is defined as an increase of 25% or greater in the product of the largest perpendicular diameters for at least one bidimensionally measurable tumor, or an increase of 25% or greater at least one undimensionally measurable tumor or appearance of a new lesion or clinical deterioration. […]
“Partial response” means a) for bidimensionally measurable tumors, a decrease of at least 50% in the sum of the products of tire largest perpendicular diameters of all measurable tumors as determined by two observations not less than four weeks apart, b) for undimensionally measurable tumors, a decrease by at least 50% in the sum of the largest diameters of all tumors as determined by two observation not less than four weeks apart. […]

refractory NSCLC = test: Phase I clinical study of CTO, patients with refractory NSCLC; format: in vivo, human; conditions: NSCLC patient; for tumor response measured after two cycles: docetaxel, erlotinib, 28 days
[2] = test system: metastatic colorectal cancer; test: Phase I clinical study of CTO, patient with refractory metastatic colorectal cancer; format: in vivo, human; conditions: 285 mg/m2/day
renal cell carcinoma = test: Phase I clinical study of CTO, patient with refractory renal cell carcinoma; format: in vivo, human; conditions: 75 mg/m2/day
[3] = test system: Akt and Erk1/2 phosphorylation; conditions: exosomes-stimulated HUVEC cell; cited from earlier work
VEGF = conditions: cited from earlier work
[4] = test system: imatinib mesylate-resistant chronic myeloid leukemia cells; conditions: cited from earlier work

For `NC(=O)c1nnn(Cc2cc(Cl)c(C(=O)c3ccc(Cl)cc3)c(Cl)c2)c1N.O=C(O)c1cc(=O)[nH]c(=O)[nH]1` [CTO, carboxyamidotriazole orotate], the “stable disease and partial response registered for” value [1] was “more than six”, the “tumor response measured after two cycles” value ([1]; prior cetuximab, cisplatin, taxotere, 28 days, two cycles) was “responded by not progressing” and the “stable disease and partial response registered for” value (refractory NSCLC; tumor EGFR, ELREATS 746-752 V (exon 19), 219 mg/m2/day) was “more than twelve”. For the same molecule, the “tumor response measured after two cycles” value (refractory NSCLC; tumor EGFR, ELREATS 746-752 V (exon 19), prior carboplatin, paclitaxel, cisplatin, gemcitamide, premetrexed, 219 mg/m2/day) was “responded by not progressing”, the “stable disease and partial response registered for” value (refractory NSCLC; tumor PI3KCA, E545K, 219mg/m2/day) was “more than twelve” and the “tumor response measured after two cycles” value (refractory NSCLC; tumor PI3KCA, E545K, prior paclitaxel, carboplatin, 219mg/m2/day) was “responded by not progressing”. The “tumor response measured after two cycles” value ([2]; tumor BRAF V660E, prior leucovorin, fluorouracil, oxaliplatin, bevacizumab, cetuximab, capecitabine, panitumumab, irinotecan, 28 days, two cycles) was “responded to CTO by not progressing”, the “stable disease and partial response registered for” value ([2]; tumor) was “six” and the “stable disease and partial response registered for” value (renal cell carcinoma; CTO continued) was “over twelve”. For the same molecule, the “tumor response measured after two cycles” value (renal cell carcinoma; prior IL-2, pegylated IFN, sorafenib, sunitnib, erlotinib, torisel, 28 days, two cycles) was “responded by not progressing” and the “effect on Akt and Erk1/2 phosphorylation” value [3] was “inhibits Akt and Erk1/2 phosphorylation”.

In the case of `NC(=O)c1nnn(Cc2cc(Cl)c(C(=O)c3ccc(Cl)cc3)c(Cl)c2)c1N` [CAI, Carboxyamidotriazole], the “effect on VEGF expression and secretion” value (VEGF) is listed as “inhibits VEGF expression, and secretion” and the “apoptosis by down-regulating bcr-abl” value [4] is listed as “induces apoptosis”.
